According to patent publication US20240336642A1 (The General Hospital Corporation, priority 2021, published 2024):

What was measured:
h12/15-LOX = h12/15-LOX (Homo sapiens (Human), UniProt P16050); test: 12/15-LOX enzyme inhibition IC50 assay (Examples 1 and 2); assay type: biochemical; conditions: for Emax / Max % inhibition: h12/15-LOX; for Emax: read-out: Max % inhibition
Procedure: Enzyme was then added to the cuvettes. […] The % inhibition for each test compound concentration were calculated as follows: […]

[1] = Aqueous solubility of exemplified compounds (Example 3); assay type: physicochemical; conditions: aqueous solubility
[2] = Metabolic stability of exemplified compounds (Example 4); assay type: in vitro ADME
[3] = Solubility in formulation vehicles (Solutol HS-15/PEG400, Captisol); assay type: physicochemical; conditions: 10% Solutol/90% PEG400
Procedure: Combinations of Solutol HS-15 (also known as Kolliphor HS-15) with PEG400 provided a good vehicle to solubilize the tested compounds. Specifically, 10% Solutol/90% PEG400 was used to prepare 20 mg/ml solutions of compound 1, compound 44, and compound 32. 10% Solutol/15% H2O/[…] led to 10 mg/ml solutions of the tested compounds.
20 mg/ml were obtained in 20% Captisol, allowing for intravenous delivery in the mouse stroke model.

[4] = system: experimental stroke model in mice (MCAO); test: Mouse stroke model, filament middle cerebral artery occlusion (MCAO), infarct size; assay type: in vivo; conditions: 40 mg/kg intraperitoneally 2 h post reperfusion, 60 minutes MCAO, sacrifice at 24 h, TTC staining
Procedure: Studies were carried out in experimental stroke model in mice, using the filament model of middle cerebral artery occlusion (MCAO). For intraperitoneal delivery, compounds were dissolved in DMSO. A number of exemplified compounds were able to reduce infarct size when given at a dosage of 40 mg/kg.
40 mg/kg cmpd. 1 were given i.p. at time of reperfusion. Infarct size was measured at 24 hours after 60 minutes MCAO.
MCAO (Experimental Middle Cerebral Artery Ischemia and Functional Recovery) experiment: 40 mg/kg of compound delivered intraperitoneally 2 h post reperfusion, 60 minutes MCAO, sacrifice at 24 h, infarct size determined by TTC staining.

Chain of h12/15-LOX (P16050 whole entry): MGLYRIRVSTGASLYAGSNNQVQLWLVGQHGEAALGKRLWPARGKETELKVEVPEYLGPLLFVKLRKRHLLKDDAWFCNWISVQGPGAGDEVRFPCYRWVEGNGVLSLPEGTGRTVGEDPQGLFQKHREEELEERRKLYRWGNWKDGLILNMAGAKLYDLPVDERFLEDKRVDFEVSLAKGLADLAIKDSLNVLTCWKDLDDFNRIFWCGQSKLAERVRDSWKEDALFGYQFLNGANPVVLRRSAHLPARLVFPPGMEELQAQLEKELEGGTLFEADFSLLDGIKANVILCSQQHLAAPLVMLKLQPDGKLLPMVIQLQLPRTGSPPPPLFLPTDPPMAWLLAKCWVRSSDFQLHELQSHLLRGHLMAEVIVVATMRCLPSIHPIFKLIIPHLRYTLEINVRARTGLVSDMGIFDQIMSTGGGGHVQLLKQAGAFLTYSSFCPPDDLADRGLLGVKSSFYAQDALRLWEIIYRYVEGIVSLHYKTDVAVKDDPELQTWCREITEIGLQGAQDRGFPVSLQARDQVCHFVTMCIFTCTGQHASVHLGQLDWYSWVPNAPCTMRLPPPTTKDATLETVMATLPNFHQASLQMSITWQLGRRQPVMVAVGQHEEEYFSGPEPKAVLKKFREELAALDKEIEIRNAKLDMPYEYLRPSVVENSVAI

Structure (SMILES)	IC50 (h12/15-LOX) [nM]	Emax (h12/15-LOX) [%]	Sol [1]	Extr (EH) ([2]; Human liver microsomes)	microsomal CLint ([2]; Human liver microsomes) [µL/min/mg]	Extr (EH) ([2]; Mouse liver microsomes)	microsomal CLint ([2]; Mouse liver microsomes) [µL/min/mg]	Extr (EH) ([2]; Rat liver microsomes)	microsomal CLint ([2]; Rat liver microsomes) [µL/min/mg]	solution concentration achieved [3] [mg/mL]	infarct size reduction ([4]; listed as Cmpd. 32) [%]	infarct size reduction ([4]; listed as compound 32) [%]	infarct size reduction [4] [%]	Max % inhibition (h12/15-LOX) [%]	CLint ([2]; Human liver microsomes)	CLint ([2]; Mouse liver microsomes)	CLint ([2]; Rat liver microsomes)
N#Cc1nc(-c2cc(Cl)cc(Cl)c2Cl)oc1NCCCO [Compound 16, 5-((3-Hydroxypropyl)amino)-2-(2,3,5-trichlorophenyl)oxazole-4-carbonitrile]	4300	100	+++ (“+++” 20-50 μM)	* (“*” <50%)	< 20	** (“**” 50-100%)	100 to 200	* (“*” <50%)	20 to 100	–	–	–	–	–	–	–	–
N#Cc1nc(-c2cc(Cl)cc(Cl)c2Cl)oc1NCCCCO [Compound 17, 5-((4-Hydroxybutyl)amino)-2-(2,3,5-trichlorophenyl)oxazole-4-carbonitrile]	1900	100	++ (“++” 10-20 μM)	* (“*” <50%)	< 20	* (“*” <50%)	< 20	* (“*” <50%)	< 20	–	–	–	–	–	–	–	–
N#Cc1nc(-c2cc(Cl)cc(Cl)c2Cl)oc1NCCCCCO [Compound 22, 5-((5-Hydroxypentyl)amino)-2-(2,3,5-trichlorophenyl)oxazole-4-carbonitrile]	510	82	+ (“+” < 10 μM)	** (“**” 50-100%)	20 to 100	* (“*” <50%)	< 20	* (“*” <50%)	20 to 100	–	–	–	–	–	–	–	–
N#Cc1nc(-c2cc(Cl)cc(Cl)c2Cl)oc1NCCOCCO [Compound 28, 5-((2-(2-Hydroxyethoxy)ethyl)amino)-2-(2,3,5-trichlorophenyl)oxazole-4-carbonitrile]	1500	87	+++ (“+++” 20-50 μM)	** (“**” 50-100%)	20 to 100	* (“*” <50%)	20 to 100	* (“*” <50%)	< 20	–	–	–	–	–	–	–	–
COCCOCCNc1oc(-c2cc(Cl)cc(Cl)c2Cl)nc1C#N [Compound 32, 5-((2-(2-Methoxyethoxy)ethyl)amino)-2-(2,3,5-trichlorophenyl) oxazole-4-carbonitrile]	610	96	++ (“++” 10-20 μM)	* (“*” <50%)	< 20	* (“*” <50%)	< 20	* (“*” <50%)	< 20	20	31.8	31.8	–	–	–	–	–
COCCNc1oc(-c2cc(Cl)cc(Cl)c2Cl)nc1C#N [Compound 39, 5-((2-Methoxyethyl)amino)-2-(2,3,5-trichlorophenyl)oxazole-4-carbonitrile]	370	100	+ (“+” < 10 μM)	** (“**” 50-100%)	20 to 100	** (“**” 50-100%)	100 to 200	** (“**” 50-100%)	20 to 100	–	–	–	–	–	–	–	–
N#Cc1nc(-c2cc(Cl)cc(Cl)c2Cl)oc1NCC#CCOCc1ccccc1 [Compound 43, 5-((4-(Benzyloxy)but-2-yn-1-yl)amino)-2-(2,3,5-trichlorophenyl)oxazole-4-carbonitrile]	230	93	+ (“+” < 10 μM)	** (“**” 50-100%)	100 to 200	** (“**” 50-100%)	20 to 100	** (“**” 50-100%)	20 to 100	–	–	–	–	–	–	–	–
[2H]C([2H])([2H])Nc1oc(-c2cc(Cl)cc(Cl)c2Cl)nc1C#N [Compound 44, 5-((methyl-d3)amino)-2-(2,3,5-trichlorophenyl) oxazole-4-carbonitrile]	90	91	–	–	–	–	–	–	–	20	–	–	29.6	–	–	–	–
COC/C=C/CNc1oc(-c2cc(Cl)cc(Cl)c2Cl)nc1C#N [Compound 45, (E)-5-((4-Methoxybut-2-en-1-yl)amino)-2-(2,3,5-trichlorophenyl)oxazole-4-carbonitrile]	190	98	+ (“+” < 10 μM)	** (“**” 50-100%)	20 to 100	** (“**” 50-100%)	100 to 200	** (“**” 50-100%)	20 to 100	–	–	–	–	–	–	–	–
COCC/C=C/CNc1oc(-c2cc(Cl)cc(Cl)c2Cl)nc1C#N [Compound 46, (E)-5-((5-Methoxypent-2-en-1-yl)amino)-2-(2,3,5-trichlorophenyl)oxazole-4-carbonitrile]	210	95	+ (“+” < 10 μM)	** (“**” 50-100%)	20 to 100	** (“**” 50-100%)	100 to 200	** (“**” 50-100%)	20 to 100	–	–	–	–	–	–	–	–
N#Cc1nc(-c2cc(Cl)cc(Cl)c2Cl)oc1NC/C=C/COCc1ccccc1 [Compound 47, (E)-5-((4-(Benzyloxy)but-2-en-1-yl)amino)-2-(2,3,5-trichlorophenyl)oxazole-4-carbonitrile]	230	98	+ (“+” < 10 μM)	** (“**” 50-100%)	100 to 200	** (“**” 50-100%)	100 to 200	** (“**” 50-100%)	100 to 200	–	–	–	–	–	–	–	–
COCCOCCCCNc1oc(-c2cc(Cl)cc(Cl)c2Cl)nc1C#N [Compound 48, 5-((4-(2-Methoxyethoxy)butyl)amino)-2-(2,3,5-trichlorophenyl)oxazole-4-carbonitrile]	620	–	+ (“+” < 10 μM)	** (“**” 50-100%)	–	** (“**” 50-100%)	–	** (“**” 50-100%)	–	–	–	–	–	100	++ (“++” 20-100 μL/min/mg)	+++ (“+++” 100-200 μL/min/mg)	++ (“++” 20-100 μL/min/mg)
CC(C)OCCOCCNc1oc(-c2cc(Cl)cc(Cl)c2Cl)nc1C#N [Compound 49, 5-((2-(2-Isopropoxyethoxy)ethyl)amino)-2-(2,3,5-trichlorophenyl)oxazole-4-carbonitrile]	660	95	+ (“+” < 10 μM)	* (“*” <50%)	< 20	** (“**” 50-100%)	20 to 100	** (“**” 50-100%)	20 to 100	–	–	–	–	–	–	–	–
COCCOCCOCCNc1oc(-c2cc(Cl)cc(Cl)c2Cl)nc1C#N [Compound 50, 5-((2-(2-(2-Methoxyethoxy)ethoxy)ethyl)amino)-2-(2,3,5-trichlorophenyl)oxazole-4-carbonitrile]	890	–	+++ (“+++” 20-50 μM)	** (“**” 50-100%)	–	** (“**” 50-100%)	–	** (“**” 50-100%)	–	–	–	–	–	99	++ (“++” 20-100 μL/min/mg)	++ (“++” 20-100 μL/min/mg)	++ (“++” 20-100 μL/min/mg)
COc1cnccc1OCCOCCNc1oc(-c2cc(Cl)cc(Cl)c2Cl)nc1C#N [Compound 99, 5-((2-(2-((3-Methoxypyridin-4-yl)oxy)ethoxy)ethyl)amino)-2-(2,3,5-trichlorophenyl)oxazole-4-carbonitrile]	1700	66	–	–	–	–	–	–	–	–	–	–	–	–	–	–	–
N#Cc1nc(-c2cc(Cl)cc(Cl)c2Cl)oc1NCCOCCOCCOc1ccncc1 [Compound 100, 5-((2-(2-(2-(Pyridin-4-yloxy)ethoxy)ethoxy)ethyl)amino)-2-(2,3,5-trichlorophenyl)oxazole-4-carbonitrile]	> 20000	–	–	–	–	–	–	–	–	–	–	–	–	–	–	–	–
COc1cc(OCCOCCNc2oc(-c3cc(Cl)cc(Cl)c3Cl)nc2C#N)ccn1 [Compound 101, 5-((2-(2-((2-Methoxypyridin-4-yl)oxy)ethoxy)ethyl)amino)-2-(2,3,5-trichlorophenyl)oxazole-4-carbonitrile]	72	62	–	–	–	–	–	–	–	–	–	–	–	–	–	–	–
N#Cc1nc(-c2cc(Cl)cc(Cl)c2Cl)oc1NCCOCCOc1ccnc(F)c1 [Compound 102, 5-((2-(2-((2-Fluoropyridin-4-yl)oxy)ethoxy)ethyl)amino)-2-(2,3,5-trichlorophenyl)oxazole-4-carbonitrile]	110	86	–	–	–	–	–	–	–	–	–	–	–	–	–	–	–
N#Cc1nc(-c2cc(Cl)cc(Cl)c2Cl)oc1NCCOCCOc1ccnnc1 [Compound 103, 5-((2-(2-(Pyridazin-4-yloxy)ethoxy)ethyl)amino)-2-(2,3,5-trichlorophenyl)oxazole-4-carbonitrile]	4600	73	–	–	–	–	–	–	–	–	–	–	–	–	–	–	–
